Test results taken from ChEMBL document CHEMBL5390258, “Recent Progress and Prospects of Small Molecules for NLRP3 Inflammasome Inhibition” (J Med Chem, 2023).

How the values were obtained:
THP-1 = experiment: Induction of pyroptosis in PMA-differentiated human THP-1 cells at 10 uM in presence of ATP by CytoTox 96 nonradioactive assay relative to control; type: functional
[1] = Cytotoxicity against human THP-1 cells assessed as reduction in cell viability measured after 72 hrs by MTT assay; type: toxicity, cell-based; settings: read-out: TC50
[2] = target: NACHT, LRR and PYD domains-containing protein 3 (Homo sapiens, UniProt Q96P20); experiment: Inhibition of NLRP3 in human PBMC cells assessed as reduction in IL-1beta production; type: cell-based
NACHT, LRR and PYD domains-containing protein 3, sequence (Q96P20 whole entry, the tested form may be a part): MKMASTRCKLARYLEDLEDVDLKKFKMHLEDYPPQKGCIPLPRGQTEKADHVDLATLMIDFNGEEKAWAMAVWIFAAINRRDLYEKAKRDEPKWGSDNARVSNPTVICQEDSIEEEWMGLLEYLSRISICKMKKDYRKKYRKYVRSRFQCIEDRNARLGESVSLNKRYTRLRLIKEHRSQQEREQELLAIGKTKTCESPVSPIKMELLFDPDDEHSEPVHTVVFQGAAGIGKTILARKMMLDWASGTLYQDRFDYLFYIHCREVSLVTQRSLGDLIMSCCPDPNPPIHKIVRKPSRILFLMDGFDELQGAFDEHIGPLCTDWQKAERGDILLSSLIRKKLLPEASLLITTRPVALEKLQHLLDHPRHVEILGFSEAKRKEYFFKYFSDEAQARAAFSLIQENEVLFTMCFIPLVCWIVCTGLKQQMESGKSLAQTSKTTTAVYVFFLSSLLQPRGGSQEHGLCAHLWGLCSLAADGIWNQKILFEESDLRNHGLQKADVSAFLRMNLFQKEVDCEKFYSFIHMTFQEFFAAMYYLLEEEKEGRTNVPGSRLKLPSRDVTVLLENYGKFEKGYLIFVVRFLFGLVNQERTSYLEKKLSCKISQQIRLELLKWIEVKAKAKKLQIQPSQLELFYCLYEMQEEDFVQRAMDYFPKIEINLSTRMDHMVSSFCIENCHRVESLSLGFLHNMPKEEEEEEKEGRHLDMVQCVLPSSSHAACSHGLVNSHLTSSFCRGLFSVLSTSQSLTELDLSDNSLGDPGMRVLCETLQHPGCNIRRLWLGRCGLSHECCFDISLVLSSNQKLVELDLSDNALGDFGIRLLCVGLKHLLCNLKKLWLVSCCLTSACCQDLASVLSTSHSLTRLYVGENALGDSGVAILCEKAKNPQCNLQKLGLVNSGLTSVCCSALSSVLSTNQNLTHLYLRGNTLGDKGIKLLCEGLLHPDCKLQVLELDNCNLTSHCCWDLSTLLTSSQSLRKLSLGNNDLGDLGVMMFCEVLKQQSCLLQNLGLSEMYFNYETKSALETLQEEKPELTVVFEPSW

Row | Structure (SMILES) | Activity (THP-1) [%] | CC50 at 72 h [1] [µM] | IC50 [2] [µM]
1 | C=C(Cc1ccccc1Cl)C(=O)NCCc1ccc(S(N)(=O)=O)cc1 | 80.9 | > 100 | –
2 | C=C1C(=O)[C@]23[C@H](O)[C@@H]1CC[C@H]2[C@@]12CO[C@@]3(O)[C@@H](O)[C@@H]1C(C)(C)CC[C@@H]2O | – | – | 5.18
